Source: patent publication US4968708A, “Imidazo[2,1-B]benzothiazole compounds and antiulcer compositions containing the same” (priority 1988, dated 1990)

Assays:
aspirin-induced ulcer = experiment: Antiulcer activity against aspirin-induced ulcer model; format: in vivo, Wistar strain male rats; settings: rats, 100 mg/kg p.o. 30 min before aspirin 200 mg/kg p.o.; for inhibition in vivo at 100 mg/kg: Rattus norvegicus, po, 7 h, read-out: Aspirin Induced Ulcer Inhibition Rate; for Aspirin Induced Ulcer Ulcer Index: stomach excised 7 h after aspirin
Method: Thirty minutes after administration, aspirin was further orally administered at a dose of 200 mg/kg. Seven hours after administration of aspirin, the stomach was excised under ethereal anesthesia and spotted and linear erosion and a long diameter of any ulcer were microscopically measured to determine an ulcer index and an inhibition rate.
(§1) In the control group, a 5% gum arabic aqueous solution was orally administered at a dose of 5 ml/kg.

[1] = tested on: water-immersion stress ulcer; experiment: Antiulcer activity against water-immersion stress ulcer; format: in vivo, Wistar strain male rats; settings: rats; for inhibition in vivo at 100 mg/kg: Rattus norvegicus, po, 6 h, read-out: Water-Immersion Stress Ulcer Inhibition Rate; for Water-Immersion Stress Ulcer Ulcer Index: 100 mg/kg p.o. 30 min before 6 h water immersion at 22°±1° C.
Method: A suspension of each test compound in a 5% gum arabic aqueous solution was orally given to Wistar strain male rats (at the age of 7 to 8 weeks, weighing 180 to 250 g; 7-9 rats in the group administered with the test compound; 10-16 rats in the control group) fasted for 24 hours at a dose of 100 mg of the test compound/5 ml/kg. Thirty minutes after administration, the animal was immersed in a water bath at 22°±1° C. up to the xiphisternum using a stress cage made by Tokyo University, Faculty of Pharmacology, to apply a stress load for 6 hours. After applying the stress load, the rats had the cervical vertebra dislocated to death. Then, the stomach was excised and, spotted and linear erosion and a long diameter of any ulcer were microscopically measured to determine an ulcer index and an inhibition rate.
as §1

ethanol-induced ulcer = experiment: Antiulcer activity against ethanol-induced ulcer model; format: in vivo, Wistar strain male rats; settings: rats, 100 mg/kg p.o. 30 min before absolute ethanol 5 ml/kg p.o.; for Ethanol Induced Ulcer Ulcer Index: stomach excised 1 h later; for Ethanol Induced Ulcer Inhibition Rate: vs control group
Method: A suspension of each test compound in a 5% gum arabic aqueous solution was orally given to Wistar strain male rats (at the age of 7 to 8 weeks, weighing 180 to 250 g; 5 rats in the group administered with the test compound; 9 rats in the control group) fasted for […] at a dose of 100 mg of any the test compound/5 ml/kg. Thirty minutes after administration, absolute ethanol was further orally administered at a dose of 5 ml/kg. One hour after administration of absolute ethanol, the stomach was excised under ethereal anesthesia and spotted and linear erosion and a long diameter of ulcer were microscopically measured to determine an ulcer index and an inhibition rate.
as §1

gastric juice secretion = experiment: Gastric juice secretion inhibition activity (pyloric ligature); format: in vivo, Wistar strain male rats; settings: rats, 100 mg/kg p.o.; for inhibition in vivo at 100 mg/kg: Rattus norvegicus, po, read-out: Volume Inhibition Rate; for Volume (gastric juice): pyloric ligature 30 min later, gastric juice collected after 4 h; for pH (gastric juice): first part of Table 5
Method: A suspension of each test compound in a 5% gum arabic aqueous solution was orally given to Wistar strain male rats (at the age of 7 to 8 weeks, weighing 180 to 250 g; 7-9 rats in the group administered with the test compound; 14-17 rats in the control group) fasted for 24 hours at a dose of 100 mg of the test compound/5 ml/kg. Thirty minutes after administration, pyloric ligature was made under ethereal anesthesia. Four hours thereafter, the stomach was excised under ethereal anesthesia to collect gastric juice. The collected gastric juice was centrifuged (2500 rpm) at 4° C. for 10 minutes. After the supernatant was collected, the amount of the gastric juice and its pH were measured using a pH meter. Furthermore, the amount of free hydrochloric acid and the total acidity were measured with Topfer reagent and phenolphthalein reagent, respectively. Using a part of the gastric juice, pepsin output in the gastric juice was measured using casein as a substrate in a manner similar to the method of Anson et al.
as §1

Acute toxicity = format: in vivo; settings: mouse, in vivo, po; mice, 7 days observation, Probit method
Method: (§2) A suspension of each test compound in a 5% gum arabic aqueous solution was orally given to ddy strain male mice (at the age of 4 to 5 weeks, weighing 25 to 35 g; 2 to 9 mice in one group). For 7 days after the administration, the mice were observed as to if they were dead or alive. Based on the number of deaths, the LD50 value was determined by the Probit method.

ddy strain male mice = experiment: Acute toxicity; format: in vivo; settings: 7 days observation
Method: as §2

[2] = 100 mg/kg p.o. 30 min before 6 h water immersion, vs control group
[3] = 4 h, pyloric ligature, 4 h, vs control group

Compound	inhibition in vivo at 100 mg/kg (aspirin-induced ulcer; vs control group)	Aspirin Induced Ulcer Ulcer Index (aspirin-induced ulcer)	inhibition in vivo at 100 mg/kg [1, 2]	Water-Immersion Stress Ulcer Ulcer Index [1]	Ethanol Induced Ulcer Ulcer Index (ethanol-induced ulcer)	Ethanol Induced Ulcer Inhibition Rate (ethanol-induced ulcer)	inhibition in vivo at 100 mg/kg (gastric juice secretion; [3])	Volume (gastric juice) (gastric juice secretion)	Acidity (gastric juice secretion; pyloric ligature, 4 h)	Free HCl (gastric juice secretion; pyloric ligature, 4 h)	Pepsin Activity (gastric juice secretion; pyloric ligature, 4 h)	Pepsin Output (gastric juice secretion; pyloric ligature, 4 h)	pH (gastric juice) (gastric juice secretion; pyloric ligature, 4 h)	LD50 at 168 h (Acute toxicity)	Mortality (No. death/No. treated) (ddy strain male mice; 2000 mg/kg p.o)	Mortality (No. death/No. treated) (ddy strain male mice; 2828 mg/kg p.o)	further results
Cc1nc2sc3ccccc3n2c1CO [Example 1, 2-Methylimidazo[2,1-b]benzothiazole-3-methanol]	59.4%	23.3 ± 5.1 mm^2	80%	4.3 ± 0.9 mm^2	4.9 ± 2.6 mm^2	94.3%	52.5%	2.8 ± 0.4 mL	49.0 ± 5.9 mEq/l	9.4 ± 3.1 mEq/l	90.3 ± 5.9 units/ml	59.6 ± 6.8 units/hr	2.94 ± 0.30	3590 mg/kg	0/4	1/5	Mortality (No. death/No. treated) (ddy strain male mice; 4000 mg/kg p.o): 3/5; Mortality (No. death/No. treated) (ddy strain male mice; 4899 mg/kg p.o): 2/2
Cc1nc2sc3ccccc3n2c1CO.Cl [Example 2, 2-Methylimidazo[2,1-b]benzothiazole-3-methanol hydrochloride]		36.0 ± 5.8 mm^2		4.6 ± 1.1 mm^2				2.8 ± 0.4 mL	77.3 ± 4.5 mEq/l	15.8 ± 4.5 mEq/l	91.1 ± 8.3 units/ml	58.4 ± 5.2 units/hr	2.43 ± 0.20	2130 mg/kg			Aspirin Induced Ulcer Inhibition Rate (aspirin-induced ulcer; vs control group): 46.1%; Water-Immersion Stress Ulcer Inhibition Rate [1, 2]: 80.3%; Volume Inhibition Rate (gastric juice secretion; pyloric ligature, 4 h, vs control group): 53.3%; Mortality (No. death/No. treated) (ddy strain male mice; 1732 mg/kg p.o): 0/5; Mortality (No. death/No. treated) (ddy strain male mice; 2041 mg/kg p.o): 2/4; Mortality (No. death/No. treated) (ddy strain male mice; 2236 mg/kg p.o): 3/5; Mortality (No. death/No. treated) (ddy strain male mice; 2449 mg/kg p.o): 4/5
CCc1nc2sc3ccccc3n2c1CO [Example 8, 2-Ethylimidazo[2,1-b]benzothiazole-3-methanol]			50.3%	8.1 ± 2.2 mm^2	4.1 ± 2.2 mm^2	95.2%											
COCc1c(C)nc2sc3ccccc3n12 [Example 12, 2-Methylimidazo[2,1-b]benzothiazole-3-methanol methyl ether]	34.5%	49.9 ± 5.4 mm^2	83.3%	2.2 ± 0.4 mm^2			60.3%	2.5 ± 0.1 mL	66.7 ± 4.7 mEq/l	23.2 ± 6.9 mEq/l	90.7 ± 4.1 units/ml	55.5 units/hr	2.28 ± 0.26	1770 mg/kg	6/9	6/6	Mortality (No. death/No. treated) (ddy strain male mice; 1414 mg/kg p.o): 1/5
